Results: ChEMBL document CHEMBL4483862, “Open-source discovery of chemical leads for next-generation chemoprotective antimalarials” (2018)

Tested on: Plasmodium berghei
Test: Luciferase/luciferin-expressing antifolate-resistant parasites were used to infect a culture of HepG2 cells that were pre-incubated with compounds. Infected hepatocytes emit light due to the luciferase reaction. Assay results are presented as the percent inhibition of light emission compared to control. […]
Assay type: functional
Details: sporozoite; for IC90: read-out: LUCIFERASE INFECTION ASSAY - IC90

| SMILES | IC90 [µM] | other results |
| --- | --- | --- |
| c1ccc(CNc2nccc3[nH]c(-c4ccccc4)nc23)cc1 | 7.44 | IC50 (HEPG2TOX_HILL_SLOPE 2.3, HEPG2TOX_R_SQUARED 0.763, PBLUC_HILL_SLOPE 1.79, PBLUC_R_SQUARED 0.522, read-out: LUCIFERASE INFECTION ASSAY - IC50): 2.19 µM |
| CCN(CC)S(=O)(=O)c1cc(NC(=O)C2CCN(c3ncnc4sc(C)c(C)c34)CC2)ccc1Cl | 3.98 | IC50 (HEPG2TOX_HILL_SLOPE 2.3, HEPG2TOX_R_SQUARED 0.823, PBLUC_HILL_SLOPE 13, PBLUC_R_SQUARED 0.57, read-out: LUCIFERASE INFECTION ASSAY - IC50): 3.36 µM |
| CC1(C)CC(N2CCN(C(c3ccccc3)c3ccccc3)CC2)=CC(=[N+]2CCCCC2)C1 | 1.67 | IC50 (HEPG2TOX_HILL_SLOPE 2.29, HEPG2TOX_R_SQUARED 0.813, PBLUC_HILL_SLOPE 10.9, PBLUC_R_SQUARED 0.679, read-out: LUCIFERASE INFECTION ASSAY - IC50): 1.36 µM |
| COc1cccc(CN2CCC2(C)C(=O)Nc2cccc(Oc3ccccc3)c2)c1F (configuration not stated) | > 7.85 | IC50 (HEPG2TOX_HILL_SLOPE 2.25, HEPG2TOX_R_SQUARED 0.907, PBLUC_HILL_SLOPE 3.39, PBLUC_R_SQUARED 0.419, read-out: LUCIFERASE INFECTION ASSAY - IC50): 5.73 µM |
| COc1cc(Nc2ncc3c(n2)CCN(C(=O)Nc2ccc(C(C)C)cc2)C3)cc(OC)c1OC | 6.4 | IC50 (HEPG2TOX_HILL_SLOPE 2.3, HEPG2TOX_R_SQUARED 0.688, PBLUC_HILL_SLOPE 0.8, PBLUC_R_SQUARED 0.723, read-out: LUCIFERASE INFECTION ASSAY - IC50): 0.411 µM |
| CC(Sc1nc(Nc2ccccc2)c2ccccc2n1)C(=O)Nc1sccc1C#N (configuration not stated) | > 10 | IC50 (HEPG2TOX_HILL_SLOPE 2.3, HEPG2TOX_R_SQUARED 0.812, read-out: LUCIFERASE INFECTION ASSAY - IC50): > 10 µM |
| O=C1CC(c2ccc(Cl)cc2)Cc2c1cnn2-c1ccc(Cl)cc1 (configuration not stated) | > 9.24 | IC50 (HEPG2TOX_HILL_SLOPE 2.3, HEPG2TOX_R_SQUARED 0.887, PBLUC_HILL_SLOPE 1.56, PBLUC_R_SQUARED 0.715, read-out: LUCIFERASE INFECTION ASSAY - IC50): 2.9 µM |
| COc1ccccc1C(=O)c1cnc(Nc2cccc(Oc3ccccc3)c2)[nH]1 | 3.37 | IC50 (HEPG2TOX_HILL_SLOPE 2.29, HEPG2TOX_R_SQUARED 0.975, PBLUC_HILL_SLOPE 12.2, PBLUC_R_SQUARED 0.607, read-out: LUCIFERASE INFECTION ASSAY - IC50): 2.81 µM |
| O=C(NCc1ccc(Oc2ccc(F)cc2)cc1)c1ccc(=O)[nH]n1 | > 10 | IC50 (HEPG2TOX_HILL_SLOPE 2.29, HEPG2TOX_R_SQUARED 0.724, PBLUC_HILL_SLOPE 1.94, PBLUC_R_SQUARED 0.162, read-out: LUCIFERASE INFECTION ASSAY - IC50): 5.95 µM |
| O=C(c1ccc(S(=O)(=O)C(F)(F)F)cc1)N1CCN(Cc2csc(-c3ccccc3)n2)CC1 | 4.21 | IC50 (HEPG2TOX_HILL_SLOPE 2.26, HEPG2TOX_R_SQUARED 0.817, PBLUC_HILL_SLOPE 12.1, PBLUC_R_SQUARED 0.456, read-out: LUCIFERASE INFECTION ASSAY - IC50): 3.51 µM |
| Cc1cccc(N2CCN(C(=O)c3cccc(OCc4c(C)noc4C)c3)CC2)c1C | > 10 | IC50 (HEPG2TOX_HILL_SLOPE 2.27, HEPG2TOX_R_SQUARED 0.832, PBLUC_HILL_SLOPE 9.75, PBLUC_R_SQUARED 0.237, read-out: LUCIFERASE INFECTION ASSAY - IC50): 9.51 µM |
| CC(=O)Nc1cccc(-c2cn3c(-c4ccc5c(ccn5C)c4)cnc3cn2)c1 | 7.79 | IC50 (HEPG2TOX_HILL_SLOPE 2.25, HEPG2TOX_R_SQUARED 0.952, PBLUC_HILL_SLOPE 1.38, PBLUC_R_SQUARED 0.642, read-out: LUCIFERASE INFECTION ASSAY - IC50): 1.59 µM |
| C/C(=N\NC(=O)c1ccc(OCC(=O)N2C(C)CCCC2C)cc1)c1ccc2ccccc2c1O (configuration not stated) | 3.9 | IC50 (HEPG2TOX_HILL_SLOPE 2.27, HEPG2TOX_R_SQUARED 0.93, PBLUC_HILL_SLOPE 2.78, PBLUC_R_SQUARED 0.436, read-out: LUCIFERASE INFECTION ASSAY - IC50): 1.77 µM |
| Clc1ccc2c(c1)-c1nc(-c3ccncc3)ncc1CS2 | 5.94 | IC50 (HEPG2TOX_HILL_SLOPE 2.28, HEPG2TOX_R_SQUARED 0.969, PBLUC_HILL_SLOPE 3.97, PBLUC_R_SQUARED 0.207, read-out: LUCIFERASE INFECTION ASSAY - IC50): 3.41 µM |
| COc1cccc(C(=O)Nc2nc3ccccn3c2C(=O)NC2CCCCC2)c1 | 2.95 | IC50 (HEPG2TOX_HILL_SLOPE 2.26, HEPG2TOX_R_SQUARED 0.97, PBLUC_HILL_SLOPE 3.61, PBLUC_R_SQUARED 0.707, read-out: LUCIFERASE INFECTION ASSAY - IC50): 1.61 µM |
| C(=C1\CCc2cnc3scc[n+]3c21)/c1ccccc1 | > 10 | IC50 (HEPG2TOX_HILL_SLOPE 2.32, HEPG2TOX_R_SQUARED 0.938, read-out: LUCIFERASE INFECTION ASSAY - IC50): > 10 µM |

| SMILES | IC90 [µM] | other results |
| --- | --- | --- |
| O=C(Nc1ccc(OCc2ccccc2)cc1)C1=COC2=NC(=O)N(Cc3cccc(Cl)c3)CCN12 | 4.47 | IC50 (HEPG2TOX_HILL_SLOPE 2.27, HEPG2TOX_R_SQUARED 0.429, PBLUC_HILL_SLOPE 8.12, PBLUC_R_SQUARED 0.376, read-out: LUCIFERASE INFECTION ASSAY - IC50): 3.41 µM |
| O=C1C=C/C(=N\Nc2ccc3ncsc3c2)c2cccnc21 | > 10 | IC50 (HEPG2TOX_HILL_SLOPE 2.28, HEPG2TOX_R_SQUARED 0.978, PBLUC_HILL_SLOPE 13.8, PBLUC_R_SQUARED 0.454, read-out: LUCIFERASE INFECTION ASSAY - IC50): 8.95 µM |
| Cc1nc(NC(=O)c2cnn(C)c2)sc1Cc1ccccc1Cl | 3.3 | IC50 (HEPG2TOX_HILL_SLOPE 2.29, HEPG2TOX_R_SQUARED 0.901, PBLUC_HILL_SLOPE 11.8, PBLUC_R_SQUARED 0.668, read-out: LUCIFERASE INFECTION ASSAY - IC50): 2.74 µM |
| COCOc1ccc(-c2cc(-c3cccc4cccnc34)cnc2N)cc1 | > 9.23 | IC50 (HEPG2TOX_HILL_SLOPE 2.28, HEPG2TOX_R_SQUARED 0.55, PBLUC_HILL_SLOPE 1.41, PBLUC_R_SQUARED 0.714, read-out: LUCIFERASE INFECTION ASSAY - IC50): 3.26 µM |
| Nc1ncc(-c2cccc(OC(F)(F)F)c2)cc1-c1cncc2ccccc12 | 3.99 | IC50 (HEPG2TOX_HILL_SLOPE 2.29, HEPG2TOX_R_SQUARED 0.959, PBLUC_HILL_SLOPE 12.1, PBLUC_R_SQUARED 0.284, read-out: LUCIFERASE INFECTION ASSAY - IC50): 3.33 µM |
| O=C(Nc1ccc(Oc2ccc3ccccc3c2)cc1)c1ccccc1 | 1.16 | IC50 (HEPG2TOX_HILL_SLOPE 2.3, HEPG2TOX_R_SQUARED 0.782, PBLUC_HILL_SLOPE 2.18, PBLUC_R_SQUARED 0.822, read-out: LUCIFERASE INFECTION ASSAY - IC50): 0.424 µM |
| C=CCN(C(=O)c1cccc(S(=O)(=O)N2CCCC2)c1)c1nc2c(s1)CCCC2 | 8.77 | IC50 (HEPG2TOX_HILL_SLOPE 2.26, HEPG2TOX_R_SQUARED 0.795, PBLUC_HILL_SLOPE 11.6, 3.98, PBLUC_R_SQUARED 0.244, 0.586, read-out: LUCIFERASE INFECTION ASSAY - IC50): 7.23 µM |
| COCCNC(=S)NNc1ccc2ccccc2c1 | 1.19 | IC50 (HEPG2TOX_HILL_SLOPE 2.26, HEPG2TOX_R_SQUARED 0.95, PBLUC_HILL_SLOPE 42.9, PBLUC_R_SQUARED 0.446, read-out: LUCIFERASE INFECTION ASSAY - IC50): 1.13 µM |
| CCOCCSc1nc(-c2ccccc2)c(-c2ccccc2)[nH]1 | > 10 | IC50 (HEPG2TOX_HILL_SLOPE 2.32, HEPG2TOX_R_SQUARED 0.811, read-out: LUCIFERASE INFECTION ASSAY - IC50): > 10 µM |
| CCC(C)NC(=O)c1c(NC(=O)c2cccc(C#N)c2)nc2ccc(C)cn12 (configuration not stated) | 3.79 | IC50 (HEPG2TOX_HILL_SLOPE 2.26, HEPG2TOX_R_SQUARED 0.914, PBLUC_HILL_SLOPE 14.3, PBLUC_R_SQUARED 0.23, read-out: LUCIFERASE INFECTION ASSAY - IC50): 3.25 µM |
| OC1CCN(c2ccnc3c(-c4ccc(Oc5ccccc5)cc4)cnn23)CC1 | 7.21 | IC50 (HEPG2TOX_HILL_SLOPE 2.26, HEPG2TOX_R_SQUARED 0.638, PBLUC_HILL_SLOPE 2.48, PBLUC_R_SQUARED 0.699, read-out: LUCIFERASE INFECTION ASSAY - IC50): 2.98 µM |
| COc1cccc(-c2cc3c(cn2)nc(NCCc2cc(OC)ccc2OC)n3C)c1 | 0.667 | IC50 (HEPG2TOX_HILL_SLOPE 2.25, HEPG2TOX_R_SQUARED 0.767, PBLUC_HILL_SLOPE 1.04, PBLUC_R_SQUARED 0.785, read-out: LUCIFERASE INFECTION ASSAY - IC50): 0.0813 µM |
| O=C(Nc1ccc(Cl)c(Cl)c1)n1ccc(C(F)(F)F)n1 | > 10.2 | IC50 (HEPG2TOX_HILL_SLOPE 2.26, HEPG2TOX_R_SQUARED 0.289, PBLUC_HILL_SLOPE 2.6, PBLUC_R_SQUARED 0.537, read-out: LUCIFERASE INFECTION ASSAY - IC50): 5.64 µM |
| Clc1ccccc1-c1nc2ccnc(NCCc3ccccn3)c2[nH]1 | > 10 | IC50 (HEPG2TOX_HILL_SLOPE 2.25, HEPG2TOX_R_SQUARED 0.756, PBLUC_HILL_SLOPE 1.33, PBLUC_R_SQUARED 0.656, read-out: LUCIFERASE INFECTION ASSAY - IC50): 5.37 µM |
| CCOc1ccccc1NC(=O)C(NCc1ccc(OC(F)F)cc1)c1ccccc1 (configuration not stated) | 4.47 | IC50 (HEPG2TOX_HILL_SLOPE 2.27, HEPG2TOX_R_SQUARED 0.924, PBLUC_HILL_SLOPE 9.94, PBLUC_R_SQUARED 0.658, read-out: LUCIFERASE INFECTION ASSAY - IC50): 3.59 µM |
